{"source": "patent US6368831B1", "about": "“Treatment of hyperproliferative disorders” (Childrens Hospital Los Angeles, priority 1998, dated 2002)", "key": {"[1]": {"tested_on": "CHLA-90 neuroblastoma cells", "assay": "DIMSCAN cytotoxicity assay, CHLA-90", "assay_type": "cell-based", "conditions": "HPR 3-10 μM, BOC-d-fmk 40 μM, +24 hours, P=0.002 at 3 μM, P<0.001 at >3 μM", "experimental": "Cytotoxicity is determined using the DIMSCAN assay system (R. Proffitt et al., Cytometry 24, 204-213 (1996); T. Frgala et al., Proc. AACR, 36, 303 (1995). The system employs digital imaging microscopy to quantify viable cells, which selectively accumulate fluorescein diacetate to become brightly fluorescent. The system is capable of measuring cytotoxicity over a 4-5 log dynamic range by quenching the residual fluorescence of dead and dying cells with eosin Y and quantifying the total fluorescence of viable cells using digital thresholding. Measured fluorescence is directly proportionate to the number of viable cells. A comparison of the total fluorescence of a drug-treated cell population to the fluorescence of a similar number of untreated cells yields a survival fraction. In brief, 5000 to 10,000 SK-N-RA neuroblastoma cells/well are replicate plated into 60 wells of a 96-well tissue culture plate in 0.1 cc media and allowed to attach overnight. Drug(s) are then added in 0.05 cc media to the final concentrations indicated. There are 12 wells treated per drug concentration. Twelve wells receive drug-vector only to the appropriate final concentration and serve as controls for the plate. Cells are incubated for 96-120 hours at 37° C. in 5% CO2. Fluorescein diacetate is then added to each well in 0.05 cc media to a final concentration of 8 microgram/cc. Cells are incubated for a further 15 minutes at 37° C. and 0.03 cc of 0.5% eosin Y is added to each well. Total fluorescence of viable cells is then measured by digital imaging microscopy.\nMethods. Cells were added in 100 μL whole medium per well to 96-well microplates for DIMSCAN cytotoxicity assay as previously described. Cell lines used were the neuroblastoma cell lines CHLA-90 and LAN-6. At Time=0, either all-trans-retinoic acid (ATRA), 13-cis-retinoic acid (13-cis-RA) or a combination of retinoid plus safingol at a 3:1 molar ratio were added in 50 μL whole medium. Plates were incubated and assayed for cytotoxicity by DIMSCAN assay at +120 for CHLA-90 cells and+144 hours for LAN-6 cells.\n(§1) Methods. To determine the manner in which 4-HPR or HPR+safingol induced cell death in neuroblastoma cells, morphological evidence of apoptosis and/or necrosis was assessed in CHLA-90 cells in the presence or absence of a specific as inhibitor of apoptosis, the neural cell-penetrant, pan-caspase enzyme inhibitor, BOC-d-fink (Enzyme Systems Products, Livermore, Calif.). […] CHLA-90 cells were plated in duplicate in whole medium in Lab Tek chamber slides (Nunc, Naperville, Ill.), allowed to attach for 24 hours, and then treated in the presence or absence of BOC-d-fink (40 μM) for one hour prior to treatment with HPR (10 μM). Control cells were treated with vehicle solvents of 0. 1% ethanol (4-HPR) and/or 0.2% DMSO (BOC-d-fink). Morphological features of apoptosis (DNA condensation and/or apoptotic bodies) were visualized in undetached cells at +24 or +48 hours using blue nuclear fluorescence induced by the supravital DNA stain Hoechst 33342 (10 μg/ml for 30 mins at 37° C.), while necrotic cells and advanced apoptotic cells were recognized by red fluorescent staining with propidium iodide (0.5 μM/ml). Red fluorescently-staining cells with condensed nuclear remnants were scored as apoptotic cells. For cells assayed at +48 hours, additional BOC-d-fink (40 μM) or appropriate control vehicle was added at +24 hours. Cells were observed using filters appropriate for each dye sequentially on an Olympus Vanox epifluorescence microscope. Mutiple random fields of cells (of ˜100-500 cells each) were counted and photographed for viable cells, apoptotic cells, and necrotic cells. To further examine cells treated with HPR, cytotoxicity assays were performed on CHLA-90 cells pretreated with or without 40 μM BOC-d-fmk for one hour prior to the addition of 4-HPR (3-10 μM) and assayed at +24 hours by DIMSCAN assay to assess the effect of caspase inhibition on viability. […]"}, "CHLA-90 cells": {"tested_on": "CHLA-90 cells", "assay": "Morphological assessment of apoptosis and necrosis (Hoechst 33342 / propidium iodide), CHLA-90", "assay_type": "cell-based, human", "experimental": "as §1, with “For cells assayed at +48 hours, additional BOC-d-fink (40 μM) or appropriate control vehicle was added at +24 hours. Cells were observed using filters appropriate for each dye sequentially on an Olympus Vanox epifluorescence microscope.” left out, “cells.” for “cells. To further examine cells treated with HPR, cytotoxicity assays were performed on CHLA-90 cells pretreated with or without 40 μM BOC-d-fmk for one hour prior to the addition of 4-HPR (3-10 μM) and assayed at +24 hours by DIMSCAN assay to assess the effect of caspase inhibition on viability.”"}}}
{"compound": "CC1=C(/C=C/C(C)=C/C=C/C(C)=C/C(=O)Nc2ccc(O)cc2)C(C)(C)CCC1", "note": "[HPR, all-trans-N-(4-hydroxyphenyl)retinamide]", "values": [{"measurement": "cytotoxicity in the presence of BOC-d-fmk", "setting": "[1]", "result": "significant cytotoxicity"}, {"measurement": "morphological nuclear changes indicative of apoptosis", "setting": "CHLA-90 cells; HPR 10 μM alone, relative to controls (P=0.006)", "result": "induced significant apoptosis"}, {"measurement": "morphological evidence of necrosis", "setting": "CHLA-90 cells; HPR 10 μM, relative to controls (P=0.002)", "result": "significant morphological evidence of necrosis"}]}
